We go through 17 compounds from publication PMC10974018, “The Development and Characterization of Novel Ionic Liquids Based on Mono- and Dicarboxylates with Meglumine for Drug Solubilizers and Skin Permeation Enhancers” (Pharmaceutics, 2024).

The conditions of data set [1]: cited from earlier work.
For data set [2] the following is noted: cited from earlier work. This is another data set of the same source.
Data set [3] in a line: Solubility capability of drug-in-IL (organic acid/MGM ionic liquids), confirmed by PXRD. Type of data set: physicochemical. The note with it: for upper limit of drug dissolution in IL: in GA-MGM 1:1, PXRD. On the procedure:
[…] Next, 1, 10, 20… w/w% of each drug and water and ethanol as the solvent was added to the MGM and organic acid solution, and then the preparation was sonicated to be completely dissolved. The resulting solution was evaporated using a thermostat at 65 °C and then vacuum-dried at 40 °C for 24 h.
The solubilization power of ILs is attributed to a range of interactions, such as ionic, van der Waals, π–π, and hydrogen bonding. […] To determine the solubility capability of the ILs, drug-in-IL complexes were prepared. Subsequently, these complexes were analyzed via PXRD to confirm dissolution. PXRD is a technique used to validate the crystalline structure of a drug or excipients in a preparation. The absence of a drug’s crystal form in PXRD indicates the complete solubilization of the drug in the IL.

Assay in data set [4]: as above
Type of data set: physicochemical. The note with it: for upper limit of drug dissolution in IL: PXRD.

For `Oc1ncnc2[nH]ncc12` [Allopurinol (ALP), Allopurinol], the Log P (usually the decadic logarithm of the partition coefficient of the neutral form, usually between octanol and water) in data set [1] is given as −1.80. The pKa (commonly the pH at which an ionisable group is half protonated) in data set [2] is given as 9.34.

For `O=C(O)CCCCCCCC(=O)O` [Azelaic acid (AA), Azelaic acid], the “Log P” value in data set [1] is 1.57. Besides, in data set [2], the pKa is listed as 4.55.

Consider `C[C@H](CS)C(=O)N1CCC[C@H]1C(=O)O` [Captopril (CPP), Captopril], for which the “upper limit of drug dissolution in IL” value in data set [3] is recorded as at least 20%; in data set [4] (in AA-MGM 1:2) it was “greater than 10%”; in data set [4] (in TA-MGM 1:2), 80%. In data set [2], the pKa is 3.64.

As to `COc1ccccc1OCCNCC(O)COc1cccc2[nH]c3ccccc3c12` (centres unmarked) [Carvedilol (CVD), Carvedilol], the “Log P” value in data set [1] is 4.19.

`COC1=C(OC)C(=O)C(C/C=C(\C)CC/C=C(\C)CC/C=C(\C)CC/C=C(\C)CC/C=C(\C)CC/C=C(\C)CC/C=C(\C)CC/C=C(\C)CC/C=C(\C)CCC=C(C)C)=C(C)C1=O` [Coenzyme Q10 (CoQ10), Coenzyme Q10]: the “upper limit of drug dissolution in IL” value in data set [4] (in AA-MGM 1:2) is listed as “greater than 10%”. Also, the log partition coefficient (Log P) in data set [1] is given as 9.94. Moreover, the pKa in data set [2] is on record as 10.9.

With `CC(C)N(CCC(C(N)=O)(c1ccccc1)c1ccccn1)C(C)C` (centres unmarked) [Disopyramide (DPA), Disopyramide], the “solubility in ILs” value in data set [3] (all ILs (TA/MGM, AA/MGM, GA/MGM, CPA/MGM)) is 100%.

On to `CCOc1ccccc1C(N)=O` [Ethenzamide (ETZ), Ethenzamide], for which the “Log P” value in data set [1] is 1.02. Also, in data set [2], the pKa is recorded as 13.7.

On to `COc1cc(/C=C/C(=O)O)ccc1O` [Ferulic acid (FA), Ferulic acid], for which, in data set [2], the pKa is 4.58.

For the compound `CC(C(=O)O)c1ccc(-c2ccccc2)c(F)c1` (centres unmarked) [Flurbiprofen (FRP), Flurbiprofen], the “upper limit of drug dissolution in IL” value in data set [3] is at least 20%; in data set [4] (in AA-MGM 1:2) it was “greater than 10%”; in data set [4] (in TA-MGM 1:2), 10%. In addition, in data set [2], the pKa was 3.78.

For the compound `CC(C)=CCC/C(C)=C/C(=O)O` [Geranic acid (GA), Geranic acid], the “Log P” value in data set [1] is recorded as 3.07. In data set [2], the pKa is given as 5.26.

On to `O=[N+]([O-])O[C@@H]1CO[C@H]2[C@@H]1OC[C@@H]2O` [Isosorbide mononitrate (ISMN), Isosorbide mononitrate], for which the “upper limit of drug dissolution in IL” value is on record as at least 20% in data set [3] and “greater than 10%” in data set [4] (in AA-MGM 1:2). In data set [4] (5% and 10% drug in TA-MGM 1:2), the “dissolution of drug in IL by PXRD (drug-derived crystal peaks)” value was “cannot be completely dissolved”. In addition, in data set [1], the “Log P” value is −0.15.

Consider `CNC[C@H](O)[C@@H](O)[C@H](O)[C@H](O)CO` [Meglumine (MGM), Meglumine], for which the pKa in data set [2] was 9.52.

On to `CC1COc2c(N3CCN(C)CC3)c(F)cc3c(=O)c(C(=O)O)cn1c23` (centres unmarked) [Ofloxacin (OFLX), Ofloxacin], for which, in data set [1], the log partition coefficient (Log P) is listed as −0.48. In data set [2], the pKa1 is 5.97 and the pKa2 was 9.28.

As for `C[C@@H]1O[C@@H](OC[C@H]2O[C@@H](Oc3c(-c4ccc(O)c(O)c4)oc4cc(O)cc(O)c4c3=O)[C@H](O)[C@@H](O)[C@@H]2O)[C@H](O)[C@H](O)[C@H]1O` [Rutin], the “upper limit of drug dissolution in IL” value in data set [3] is given as at least 20%; in data set [4] (in AA-MGM 1:2), “greater than 10%”. Besides, the lipophilicity (Log P) in data set [1] is −1.33. Besides, in data set [2], the pKa was 6.43.

For the compound `O=C(O)C(O)C(O)C(=O)O` (centres unmarked) [Tartaric acid (TA), Tartaric acid], the “Log P” value in data set [1] is listed as −1.8.

As to Curcumin [Curcumin (CCM)], the pKa in data set [2] is reported as 8.09.

Consider Minoxidil [Minoxidil (MXD)], for which the “Log P” value in data set [1] was 1.24. In addition, the pKa in data set [2] is 4.61.
